In general, Papp A→B refers to how fast a substance crosses the layer from the apical side. Higher therefore signals fast passage.

For data set [1] the following is noted: with chemical potentiating agents, including oleic acid; cited from earlier work.
The subject of data set [2] is human keratinocyte cell lines (HACAT). Put plainly: MTT cytotoxicity test, HACAT. It counts as cell-based. (Tetrazolium assays rely on reduction of a dye to a coloured formazan, in cell work by metabolically active cells.)
Data set [3] relates to human fibroblast cell lines (HFF). Put plainly: MTT cytotoxicity test, HFF. It counts as cell-based.
Data set [4] relates to human endothelial cells from the umbilical vein (HUVEC). Put plainly: MTT cytotoxicity test, HUVEC. It counts as cell-based.
The nature of data set [5]: In vitro-ex vivo skin permeation across human epidermis, Franz diffusion cells. The data set is classed as in vitro ADME. Conditions: 4% w/v, up to 24 hours. The procedure:
The Franz diffusion cells comprise two compartments, one containing the active ingredient (donor vehicle) and the other containing a receiving solution, separated by a slice of human epidermis. The vertical cells used in the actual experimental unit have a wider column than that in the original Franz type of diffusion cell, and the decanter shape was dispensed with. These have a diffusion area of 0.636 cm^2 and a receiving compartment of approximately 3.0 ml. The receiving volume in each cell is individually calibrated and equipped with a magnetic stirrer. Human epidermis was selected as the membrane for skin permeation studies. The skin used in the studies was obtained from the abdominal skin of a donor who underwent cosmetic surgery. The skin samples were prepared following an internal standard procedure. The full thickness of the skin was sealed in evacuated plastic bags and frozen at -20° C. within 6 hours of removal. Before the experiments the skin was thawed out at ambient temperature and excess fat was completely removed. […] The integrity of the skin was evaluated by measuring the impedance of each sample (Agilent LCR Meter 4263B). Subsequently the epidermis was mounted in the Franz diffusion cell, the receiving compartment of which was filled with saline solution (NaCl 0.9% w/v) filtered using a 0.22 μm filter (VWR, nylon membrane). […]

A short description of a further data set: in vitro. The conditions noted are these: dog, MDCK, pH 7.4.

Method for MDCK monolayers: MDCK cells were kept in Minimal Essential Medium Eagle (EMEM) containing 10% FBS, 2 nM of fresh L-glutamine and 2 nM of penicillin-streptomycin. The culture inserts were inseminated with 664000 cells per cm^2 (0.33 cm^2 per insert). The monolayers of MDCK were cultured for three days before use. The monolayers were washed with Hanks Balanced Salt Solution (HBSS+10 nM Hepes pH 7.4) transport medium; the electrical resistance of each monolayer was measured at 37° C. using a Millicell ERS-2 (Millipore). Background resistance values were subtracted from the resistance values of treated wells of monolayer. The resulting value was multiplied by the area of the membrane (0.33 cm^2) to calculate the transepithelial electrical resistance values (TEER (Ω cm^2)) for each monolayer. TEER values indicate the degree of confluence of the monolayer and the development of tight junctions. If the resistance was <200 Ω cm^2 the test was continued. MDCK monolayers having TEER values>200 Ω cm^2 were not used. The donor solutions in the transport test comprised 100 μM of test compound in the transport medium containing 100 nM of fluorescein isocyanate-dextran. The transport tests were performed using 0.250 ml of apical donor solution and 1 ml of basolateral acceptor solution (transport medium, pH 7.4). […] The monolayers were incubated with donor and acceptor solutions for 120 minutes at 37° C. The basolateral compartments were sampled after 120 minutes and analysed using LC-MS/MS, together with an aliquot of the donor solutions in the transport test (100 μM of the test compound) corresponding to (sample at time zero).
in which dQ/dt is the permeation velocity, CA is the initial concentration in the donor compartment and A is the surface area of the filter. […]
The integrated peak area for the LC-MS/MS chromatograms was used as the instrument response (INRE) for relative quantification of the test material.
The permeability of the test material was then evaluated by comparing the INRE for five replicates after two hours incubation, on the basis of the INRE response to the t0 samples.

On to `Cn1c(=O)c2[nH]cnc2n(C)c1=O` [Theophylline, theophylline], for which, in data set [1], the “administered flow through human skin” value is “insufficient”.

As for `Cn1c(=O)c2c(ncn2CC2OCCO2)n(C)c1=O` [Doxofylline, 2-(7′-theophyllinemethyl)-1,3-dioxolane], the “cytotoxicity (MTT test)” value in data set [2], in data set [3] and in data set [4] was “no cytotoxicity” each time. Besides, the “skin permeability values (permeate over time)” value in data set [5] (aqueous solvent, FIG. 1) is recorded as “substantially higher than those for theophylline”; in data set [5] (triacetin solvent, FIG. 2), “substantially higher than those for theophylline”. Moreover, the “permeability value (in words)” value with MDCK monolayers is “high permeability value”. In the data set “in vitro”, the Papp A→B at 120 min, 100 µM was found to be 22.7 ×10⁻⁶ cm/s.

Consider `COCCc1ccc(OCC(O)CNC(C)C)cc1` (stereo not drawn) [Metoprolol, metoprolol], for which the Papp A→B at 120 min, 100 µM in “in vitro” came out at 6.52 ×10⁻⁶ cm/s.

The record behind these values is patent US20180280400A1, “TRANSDERMAL ADMINISTRATION SYSTEM FOR USE IN THE TREATMENT OF CHRONIC BRONCHOPULMONARY DISEASES” (ABC FARMACEUTICI S.P.A., priority 2013, published 2018).
